{"source": "patent US9708270B2", "about": "“Substituted spiropiperidinyl compounds useful as GPR120 agonists” (Merck Sharp & Dohme Corp., priority 2012, dated 2017)", "data": [{"target": "human GPR120 (Homo sapiens (Human), UniProt Q5NUL3)", "sequence (Q5NUL3 whole entry, the tested form may be a part)": "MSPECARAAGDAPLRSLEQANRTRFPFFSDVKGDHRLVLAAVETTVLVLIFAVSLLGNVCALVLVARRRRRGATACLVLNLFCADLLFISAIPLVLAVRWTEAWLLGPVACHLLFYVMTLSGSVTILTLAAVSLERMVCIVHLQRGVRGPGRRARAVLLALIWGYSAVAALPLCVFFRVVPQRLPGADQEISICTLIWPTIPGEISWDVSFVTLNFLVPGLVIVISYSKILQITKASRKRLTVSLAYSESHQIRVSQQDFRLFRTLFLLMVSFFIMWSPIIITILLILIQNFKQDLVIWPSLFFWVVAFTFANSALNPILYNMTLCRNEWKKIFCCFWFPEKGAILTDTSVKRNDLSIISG", "experiment": "FLIPR assay: intracellular calcium in CHO cells expressing human GPR120", "format": "cell-based", "settings": "FLIPR calcium assay, CHO cells expressing human GPR120, agonist action", "experimental": "(§1) All compounds were tested under the FLIPR assay unless otherwise indicated.\n(§2) Primers were synthesized in the domains on the opposite sides of the base sequences of the ORFs of the known GPCR and GPR120 in GenBank Accession NOs. […] The base sequences of the primers used are described below. The restriction enzymes, BamHI and EcoRI, recognition sites were introduced for subcloning, respectively.\n(§3) As samples for PCR, human small intestine Marathon-ready cDNA (CLONTECH, current corporate name: TaKaRa) and cDMA obtained by reverse transcription of mouse BAT-derived RNA were used for human and mouse GPR120 receptor genes, respectively.\n(§4) Using KOD Plus (TOYOBO) for PCR, 30 cycles of 94° C. for 2 minutes, 94° C. for 15 seconds, 55° C. for 30 seconds and 68° C. for 1 minute were carried out to effect reaction, followed by addition of 0.5 units of ExTaq (TaKaRa) and incubation at 72° C. for 10 minutes to carry out A-addition reaction to terminals. For mouse PCR, 35 cycles were carried out on the condition of a final DMSO concentration of 2%.\n(§5) Cloning of amplified PCR products was carried out using pCR2.1-TOPO TA cloning kit (Invitrogen). For verification of base sequences, electrophoresis was carried out using BigDye Terminator Cycle Sequencing Ready Reaction Kit Ver.\n(§6) The GPR120 receptor genes cloned into pCR2.1-TOPO vectors, into which the restriction enzymes, BamHI and EcoRI, recognition sites were introduced, were excised from the vectors by the enzymes and subcloned into the BamHI and EcoRI recognition sites of eukaryotic expression vector EF1/V5-His B (Invitrogen).\n(§7) Test 2: Production of Expression Cells\n(§8) Using Lipofectamine 2000 (Invitrogen), cDNA of GPR120 receptor was transfected into CHO/NFAT-BLA cells, and drug-resistant cells were isolated to obtain GPR120 stable expression strains. The GPR120-expressed CHO cells were cultured in DMEM/F12 medium containing 10% fetal bovine serum, 100 units/ml penicillin, 0.1 mg/ml streptomycin sulfate, 250 μg/ml Zeocin, 500 μg/mL Geneticin and 15 mM HEPES.\n(§9) Test 3: Measurement of Intracellular Calcium Concentration\n(§10) To the cells was added the test compound diluted with HBSS solution containing 20 mM HEPES and 2.5 mM probenecid. Variations in the intracellular calcium concentration were measured by Fluorescence Imaging Plate Reader (FLIPR; Molecular Devices) to examine the agonist action, and EC50 values were calculated. […]", "units": {"EC50": "nM"}, "values": [{"smiles": "FC(F)(F)Oc1ccc(Cl)c(N2CCC3(CCC(Cc4nn[nH]n4)CO3)CC2)c1", "note": "(racemic) [Example 92, 3-((2H-tetrazol-5-yl)methyl)-9-(2-chloro-5-(trifluoromethoxy)phenyl)-1-oxa-9-azaspiro[5.5]undecane]", "EC50": 2630}, {"smiles": "O=C(O)CC1COC2(CCN(c3cc(OC(F)(F)F)ccc3F)CC2)C1", "note": "(racemic) [Example 94, 2-(8-(2-fluoro-5-(trifluoromethoxy)phenyl)-1-oxa-8-azaspiro[4.5]decan-3-yl)acetic acid]", "EC50": 1480}, {"smiles": "CC1CC(CC(=O)O)CCC12CCN(c1cc(OC(F)(F)F)ccc1Cl)CC2", "note": "(single isomer, unassigned) [Example 89a, 2-(3-(2-Chloro-5-(trifluoromethoxy)phenyl)-7-methyl-3-azaspiro[5.5]undecan-9-yl)acetic acid]", "EC50": 2760}, {"smiles": "CC1CC(CC(=O)O)CCC12CCN(c1cc(OC(F)(F)F)ccc1Cl)CC2", "note": "(single isomer, unassigned) [Example 89b, 2-(3-(2-Chloro-5-(trifluoromethoxy)phenyl)-7-methyl-3-azaspiro[5.5]undecan-9-yl)acetic acid]", "EC50": 3130}, {"smiles": "CC1CC(CC(=O)O)CCC12CCN(c1cc(OC(F)(F)F)ccc1Cl)CC2", "note": "(single isomer, unassigned) [Example 89c, 2-(3-(2-Chloro-5-(trifluoromethoxy)phenyl)-7-methyl-3-azaspiro[5.5]undecan-9-yl)acetic acid]", "EC50": 2490}, {"smiles": "O=C(O)CC1CCC2(CCN(c3cc(OC(F)(F)F)ccc3Cl)CC2)OC1", "note": "(single isomer, unassigned) [Example 91A, (S)-2-(9-(2-chloro-5-(trifluoromethoxy)phenyl)-1-oxa-9-azaspiro[5.5]undecan-3-yl)acetic acid or (R)-2-(9-(2-chloro-5-(trifluoromethoxy)phenyl)-1-oxa-9-azaspiro[5.5]undecan-3-yl)acetic acid]", "EC50": 636}, {"smiles": "O=C(O)CC1CCC2(CCN(c3cc(OC(F)(F)F)ccc3Cl)CC2)OC1", "note": "(single isomer, unassigned) [Example 91B, (S)-2-(9-(2-chloro-5-(trifluoromethoxy)phenyl)-1-oxa-9-azaspiro[5.5]undecan-3-yl)acetic acid or (R)-2-(9-(2-chloro-5-(trifluoromethoxy)phenyl)-1-oxa-9-azaspiro[5.5]undecan-3-yl)acetic acid]", "EC50": 1020}, {"smiles": "O=C(O)C[C@@H]1CCC2(CCN(c3cc(OC(F)(F)F)ccc3F)CC2)OC1", "note": "(single isomer, unassigned) [Example 93a, (R) or (S) 2-(9-(2-fluoro-5-(trifluoromethoxy)phenyl)-1-oxa-9-azaspiro[5.5]undecan-3-yl)acetic acid]", "EC50": 1300}, {"smiles": "O=C(O)C[C@@H]1CCC2(CCN(c3cc(OC(F)(F)F)ccc3F)CC2)OC1", "note": "(single isomer, unassigned) [Example 93b, (R) or (S) 2-(9-(2-fluoro-5-(trifluoromethoxy)phenyl)-1-oxa-9-azaspiro[5.5]undecan-3-yl)acetic acid]", "EC50": 750}, {"smiles": "O=C(O)CC1CCC2(CC1)CCN(c1cc(C(F)(F)F)ccc1Cl)CC2", "note": "[Example 2, 2-(3-(2-chloro-5-(trifluoromethyl)phenyl)-3-azaspiro[5.5]undecan-9-y)acetic acid]", "EC50": 900}, {"smiles": "CC(C(=O)O)C1CCC2(CC1)CCN(c1cc(OC(F)(F)F)ccc1Cl)CC2", "note": "(centres unmarked) [Example 3, 2-(3-(2-chloro-5-(trifluoromethoxy)phenyl)-3-azaspiro[5.5]undecan-9-yl)propanoic acid]", "EC50": 3400}, {"smiles": "O=C(O)CC1CCC2(CC1)CCN(c1cc(OC3CCCC3)ccc1Cl)CC2", "note": "[Example 5, 2-(3-(2-chloro-5-(cyclopentyloxy)phenyl)-3-azaspiro[5.5]undecan-9-yl)acetic acid]", "EC50": 1100}, {"smiles": "COc1cc(F)c(N2CCC3(CCC(CC(=O)O)CC3)CC2)cc1F", "note": "[Example 6]", "EC50": 2420}, {"smiles": "O=C(O)CC1CCC2(CC1)CCN(c1cc(OC(F)(F)F)ccc1F)CC2", "note": "[Example 7]", "EC50": 410}, {"smiles": "COc1ccc(Cl)c(N2CCC3(CCC(CC(=O)O)CC3)CC2)c1", "note": "[Example 8]", "EC50": 1670}, {"smiles": "Cc1ccc(Cl)c(N2CCC3(CCC(CC(=O)O)CC3)CC2)c1", "note": "[Example 9]", "EC50": 2180}, {"smiles": "O=C(O)CC1CCC2(CC1)CCN(c1cc([N+](=O)[O-])ccc1Cl)CC2", "note": "[Example 10]", "EC50": 1700}, {"smiles": "CC1(C)Cc2cc(Cl)cc(N3CCC4(CCC(CC(=O)O)CC4)CC3)c2O1", "note": "[Example 11]", "EC50": 2850}, {"smiles": "O=C(O)CC1CCC2(CC1)CCN(c1cc(F)ccc1C(F)F)CC2", "note": "[Example 12]", "EC50": 2420}, {"smiles": "Cc1ccc(C#N)c(N2CCC3(CCC(CC(=O)O)CC3)CC2)c1", "note": "[Example 13]", "EC50": 2140}, {"smiles": "COc1ccc(Cl)cc1N1CCC2(CCC(CC(=O)O)CC2)CC1", "note": "[Example 14]", "EC50": 3100}, {"smiles": "COc1ccc(C(F)(F)F)cc1N1CCC2(CCC(CC(=O)O)CC2)CC1", "note": "[Example 15]", "EC50": 2360}, {"smiles": "O=C(O)CC1CCC2(CC1)CCN(c1cc(C(F)(F)F)ccc1F)CC2", "note": "[Example 16]", "EC50": 652}, {"smiles": "N#Cc1ccc(F)cc1N1CCC2(CCC(CC(=O)O)CC2)CC1", "note": "[Example 17]", "EC50": 2360}, {"smiles": "CC(C)Oc1ccc(Cl)c(N2CCC3(CCC(CC(=O)O)CC3)CC2)c1", "note": "[Example 18]", "EC50": 530}, {"smiles": "Cc1cc(C)cc(N2CCC3(CCC(CC(=O)O)CC3)CC2)c1", "note": "[Example 19]", "EC50": 948}, {"smiles": "CCC(=O)c1ccc(F)c(N2CCC3(CCC(CC(=O)O)CC3)CC2)c1", "note": "[Example 20]", "EC50": 1660}, {"smiles": "O=C(O)CC1CCC2(CC1)CCN(c1cc(C(F)(F)F)ccc1C(F)(F)F)CC2", "note": "[Example 21]", "EC50": 3270}, {"smiles": "O=C(O)CC1CCC2(CC1)CCN(c1cc(C(F)F)cc(C(F)F)c1)CC2", "note": "[Example 22]", "EC50": 3010}, {"smiles": "CC(C)(C)c1cc(N2CCC3(CCC(CC(=O)O)CC3)CC2)cc(C(F)(F)F)c1", "note": "[Example 23]", "EC50": 3750}, {"smiles": "CC(C)c1cc(C#N)cc(N2CCC3(CCC(CC(=O)O)CC3)CC2)c1", "note": "[Example 24]", "EC50": 3460}, {"smiles": "N#Cc1cc(SC(F)(F)F)cc(N2CCC3(CCC(CC(=O)O)CC3)CC2)c1", "note": "[Example 25]", "EC50": 1150}, {"smiles": "CSc1nc(N2CCC3(CCC(CC(=O)O)CC3)CC2)cc(C(F)(F)F)n1", "note": "[Example 26]", "EC50": 8300}, {"smiles": "O=C(O)CC1CCC2(CC1)CCN(c1cc(C(F)F)cc(C(F)F)n1)CC2", "note": "[Example 27]", "EC50": 2990}, {"smiles": "Cc1cc(F)cc(N2CCC3(CCC(CC(=O)O)CC3)CC2)c1", "note": "[Example 28]", "EC50": 3040}, {"smiles": "O=C(O)CC1CCC2(CC1)CCN(c1cc(F)cc(Cl)c1)CC2", "note": "[Example 29]", "EC50": 1790}, {"smiles": "O=C(O)CC1CCC2(CC1)CCN(c1cc(Cl)cc(Cl)c1)CC2", "note": "[Example 30]", "EC50": 878}, {"smiles": "O=C(O)CC1CCC2(CC1)CCN(c1cc(F)cc(C(F)(F)F)c1)CC2", "note": "[Example 31]", "EC50": 1220}, {"smiles": "O=C(O)CC1CCC2(CC1)CCN(c1cc(C(F)(F)F)cc(C(F)(F)F)c1)CC2", "note": "[Example 32]", "EC50": 2150}, {"smiles": "O=C(O)CC1CCC2(CC1)CCN(c1cc(C(F)(F)F)ccn1)CC2", "note": "[Example 33]", "EC50": 3060}, {"smiles": "Cc1cc(N2CCC3(CCC(CC(=O)O)CC3)CC2)cc(C(F)(F)F)c1", "note": "[Example 34]", "EC50": 671}, {"smiles": "N#Cc1ccc(OC(F)(F)F)cc1N1CCC2(CCC(CC(=O)O)CC2)CC1", "note": "[Example 35]", "EC50": 431}, {"smiles": "O=C(O)CC1CCC2(CC1)CCN(c1cc(Cl)cc(C(F)(F)F)c1)CC2", "note": "[Example 36]", "EC50": 832}, {"smiles": "Cc1cc(F)c(Cl)c(N2CCC3(CCC(CC(=O)O)CC3)CC2)c1", "note": "[Example 37]", "EC50": 2170}, {"smiles": "O=C(O)CC1CCC2(CC1)CCN(c1cc(F)cc(Cl)c1F)CC2", "note": "[Example 38]", "EC50": 2150}, {"smiles": "O=C(O)CC1CCC2(CC1)CCN(c1cc(Cl)cc(F)c1F)CC2", "note": "[Example 39]", "EC50": 1800}, {"smiles": "Cc1cc(Cl)cc(N2CCC3(CCC(CC(=O)O)CC3)CC2)c1C#N", "note": "[Example 40]", "EC50": 2540}, {"smiles": "CSc1ccc(OC(F)(F)F)cc1N1CCC2(CCC(CC(=O)O)CC2)CC1", "note": "[Example 41]", "EC50": 1690}, {"smiles": "Cc1ccc(C(F)(F)F)cc1N1CCC2(CCC(CC(=O)O)CC2)CC1", "note": "[Example 42]", "EC50": 749}, {"smiles": "Cc1cc(C)c(Cl)c(N2CCC3(CCC(CC(=O)O)CC3)CC2)c1", "note": "[Example 43]", "EC50": 2520}, {"smiles": "CCc1cc(CC)cc(N2CCC3(CCC(CC(=O)O)CC3)CC2)c1", "note": "[Example 44]", "EC50": 2580}, {"smiles": "Cc1cc(Cl)cc(N2CCC3(CCC(CC(=O)O)CC3)CC2)c1", "note": "[Example 45]", "EC50": 1170}, {"smiles": "CCc1cc(C)cc(N2CCC3(CCC(CC(=O)O)CC3)CC2)c1", "note": "[Example 46]", "EC50": 1290}, {"smiles": "O=C(O)CC1CCC2(CC1)CCN(c1cc(OC3CCC3)ccc1Cl)CC2", "note": "[Example 47]", "EC50": 330}, {"smiles": "Cc1cc(OC(F)(F)F)cc(N2CCC3(CCC(CC(=O)O)CC3)CC2)c1", "note": "[Example 48]", "EC50": 377}]}, {"target": "human GPR120 (Homo sapiens (Human), UniProt Q5NUL3)", "experiment": "FLIPR assay: intracellular calcium in CHO cells expressing human GPR120", "format": "cell-based", "settings": "at 8300 nM; 100% activation defined by reference compound of U.S. Pat. No. 8,367,708", "experimental": "as §1, §2, §3, §4, §5, §6, §7, §8, §9, §10", "units": {"Human GPR120 % activation": "%"}, "values": [{"smiles": "CSc1nc(N2CCC3(CCC(CC(=O)O)CC3)CC2)cc(C(F)(F)F)n1", "note": "[Example 26]", "Human GPR120 % activation": 62}]}]}
